Data: patent US7635693B2, “Methods for preventing and treating cancer using N-thiolated β-lactam compounds and analogs thereof” (University of South Florida, priority 2002, dated 2009)
Where two headings read alike, the source gives them in different places.

Experiments:
PARP [1] = experiment: PARP cleavage, Western blot, Jurkat T cells; format: cell-based, human
Source text: A library of β-lactam analogs was screened for their ability to induce apoptosis. […] This is followed by preparation of cell lysates and measurement of apoptosis-specific caspase-3 activation (by cell-free caspase-3 activity assay) and PARP cleavage (by Western blotting).

Jurkat T cells = settings: for inhibition of 3H-thymidine incorporation: Jurkat T cells
Description: Incorporation of ^3H-thymidine into cells was measured as disclosed in Smith D M and Dou Q P, 2001, Green tea polyphenol epigallocatechin inhibits DNA replication and consequently induces leukemia cell apoptosis. Int J Mol Med 7:645-52. Jurkat T cells are pre-treated with a selected lactam for the indicated number of hours, followed by co-incubation with 2 μl/ml of [methyl-^3H]-thymidine [80 Ci (1.5 TBq)/mMol] at 37° C. for 2 hours. After harvesting, the cell pellet is washed with PBS, resuspended in 0.5 ml of PBS and collected on a glass microfiber filter. The filter is then washed with 5 ml/filter of PBS, followed by 5 ml/filter of ice-cold 0.1N NaOH and 5 ml/filter of ethanol. The filters containing fixed DNA are dried, and the remaining radioactivity is measured on a scintillation counter.

MDA-MB-231 cells = experiment: MTT assay, MDA-MB-231; format: cell-based, human; settings: MDA-MB-231, 50 μM, 24 hours
Description: MCF-7, MDA-MB-231, PC-3 and PCI-13 cells were grown to 50% confluency in a 24 well plate. […] A stock 5 mg/ml of MTT in serum-free media was then added to the cell cultures at a final concentration of 1 mg/ml, followed by a 3 hour incubation at 37° C. After cells crystallized, the media was removed and DMSO added to dissolve the metabolized MTT product. The absorbance was then measured on a Wallac Victor 1420 Multilabel counter at […].

PARP [2] = settings: YT cells
Description: Human Jurkat T cells and human prostate cancer LNCaP cells were cultured in RPMI 1640 medium, supplemented with 10% fetal bovine serum, 100 units/ml penicillin, and 100 μg/ml streptomycin. Human YT cells were cultured in RPMI 1640 medium supplemented with 1 mM MEM sodium pyruvate solution, 0.1 mM MEM non-essential amino acids solution, 10% fetal bovine serum, 100 units/ml penicillin, and 100 μg/ml streptomycin. All cell lines were maintained at 37° C. in a humidified incubator with an atmosphere of 5% CO2. […] Briefly, cells were harvested, washed with PBS and homogenized in a lysis buffer (50 mM Tris-HCl, pH 8.0, 5 mM EDTA, 150 mM NaCl, 0.5% NP-40, 0.5 mM phenylmethylsulfonyl fluoride, and 0.5 mM dithiothreitol) for 30 min at 4° C. Afterwards, the lysates were centrifuged at 12000×g for 15 min at 4° C. and the supernatants collected as whole-cell extracts. Equal amounts of protein extract (60 μg) were resolved by SDS-polyacrylamide gel electrophoresis and transferred to a nitrocellulose membrane (Schleicher & Schuell, Keene, N. H.) using a Semi-Dry Transfer System (Bio-Rad, Hercules, Calif.). The enhanced chemiluminescence Western blot analysis was then performed using specific antibodies to the proteins of interest.

VA-13 cells = settings: 50 μM
Description: (§1) (FIG. 19A) MTT assay. (FIG. 19B) Cell-free caspase-9 activity assay. A protein extract (20 μg) is incubated with 20 μM Ac-LEHD-AFC (the specific caspase-9 substrate) in a 96-well plate at 37° C. for 2 h. After incubation, the liberated florescent AFC groups are measured by Wallac Victor 1420 Multilabel counter with 405/535 nm filters. […] Both intact and active forms of caspase-3 are indicated. […] Both detached and attached populations of Va-13 or WI-38 cells are collected, and used for nuclear staining assay with DNA staining dye Hoechst 33342.
(§2) An MTT assay was performed in a 96-well plate, which measures cellular mitochondrial function and thereby cytotoxicity.

WI-38 cells = settings: 50 μM
Description: as §1, §2

COC1C(=O)N(SC)C1c1ccccc1Cl (racemic) [lactam 1]
PARP cleavage (PARP [1]; 10 μM, 24 h): induced apoptosis-specific PARP cleavage fragment p85
levels of PARP cleavage fragment p85 (PARP [1]; 25 μM, 24 h): further increased
time at which PARP cleavage was first detected (PARP [1]; 30 μM): 3 h
time at which PARP cleavage fragment p85 appears (PARP [1]; 50 μM): 4 h
PARP cleavage (PARP [1]; 50 μM, 8 hours): greatest potency
level of PARP cleavage relative to that by 50 μM of lactam 47 (PARP [1]; 50 μM, 12 h): ~50%
PARP degradation (PARP [1]; 50 μM, 24 h): PARP degradation was further increased
p85 PARP fragment (PARP [1]; 8 hours, 20 μM): Low levels
p85 PARP fragment (PARP [1]; 8 hours, 50 μM): significantly increased
intact PARP protein and p85 PARP fragment (PARP [1]; 8 hours, 60 μM): almost complete degradation
p85 PARP fragment (PARP [1]; 8 hours, 30 and 40 μM): further increased
inhibition of 3H-thymidine incorporation (Jurkat T cells; 20 μM, 2 h pre-incubation + 2 hour co-incubation): 20%
inhibition of 3H-thymidine incorporation (Jurkat T cells; 30 μM, 2 h pre-incubation + 2 hour co-incubation): 45%
inhibition of 3H-thymidine incorporation (Jurkat T cells; 40 μM, 2 h pre-incubation + 2 hour co-incubation): 90%
inhibition of 3H-thymidine incorporation (Jurkat T cells; 50 μM, added at the same time as 3H-thymidine, co-incubated 2 h): ~70%
inhibition of 3H-thymidine incorporation (Jurkat T cells; 50 μM, pre-incubation 2 to 8 h, then 2 hour with 3H-thymidine): 95%
inhibition of 3H-thymidine incorporation (Jurkat T cells; 50 or 60 μM, 2 h pre-incubation + 2 hour co-incubation): ~100%
IC50 (Jurkat T cells; read-out: half-maximal inhibition value for incorporation of 3H-thymidine (IC50), intact Jurkat cells, total treatment 4 h): 32 µM
decrease of cellular viability (MTT) (MDA-MB-231 cells): 80%
PARP cleavage (PARP [2]; 30 μM, 3, 6, or 24 h): no PARP cleavage was observed
PARP cleavage (PARP [2]; at even 50 μM, 24 h): no PARP cleavage was detectable
cell growth (MTT) (VA-13 cells; 6 or 24 hours): completely inhibited growth
viable cells (VA-13 cells; 120 hours): no viable VA-13 cells
cell growth (MTT) (WI-38 cells; 24 hours): slightly inhibited the cell growth
cell population (WI-38 cells; 120 hours): doubled
